These are literature values, as cited in patent publication US8071794B2, “Long wavelength thiol-reactive fluorophores” (Becton, Dickinson and Company, priority 2004, dated 2011).

The conditions of the data set: changing environment from methanol (polar protic) to toluene (non-polar); cited from earlier work.

For the compound `CN(C)c1ccc(C2=C(O)C(c3ccc(N(C)C)cc3)=C2O)cc1` [squaraine nucleus III], the “increase in fluorescence quantum yield” value is recorded as 20 fold.
